What all share (assay): relative viability (nuclei count vs DMSO), 5 days (fraction); higher = more cells survive
Compound in the assay “Crizotinib + Foretinib”: C[C@@H](Oc1cc(-c2cnn(C3CCNCC3)c2)cnc1N)c1c(Cl)ccc(F)c1Cl [Crizotinib] + COc1cc2c(Oc3ccc(NC(=O)C4(C(=O)Nc5ccc(F)cc5)CC4)cc3F)ccnc2cc1OCCCN1CCOCC1 [Foretinib] (partner 0.25 µM)
Put shortly:
(§1)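 The day after seeding in 1536-well plates, lung cancer cell lines were treated by pin tool with a single drug, or with a fixed anchor-drug dose together with five library-drug doses (not always all listed) in √10 steps. After 5 days, a combined fix-and-stain solution (final 0.05% Triton X-100, 1% formaldehyde, 1 ug/ml Hoechst) was added. Nuclei counted on 4× images gave relative viability as treated counts over vehicle counts, reported as the median of duplicate plates.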

Compound in the assay “Crizotinib + Phenformin”: C[C@@H](Oc1cc(-c2cnn(C3CCNCC3)c2)cnc1N)c1c(Cl)ccc(F)c1Cl [Crizotinib] + N=C(N)NC(=N)NCCc1ccccc1 [Phenformin] (partner 250 µM)
Summed up:
as §1

Compound in the assay “Carfilzomib + AZD7762”: CC(C)C[C@H](NC(=O)[C@H](CCc1ccccc1)NC(=O)CN1CCOCC1)C(=O)N[C@@H](Cc1ccccc1)C(=O)N[C@@H](CC(C)C)C(=O)[C@@]1(C)CO1 [Carfilzomib] + NC(=O)Nc1cc(-c2cccc(F)c2)sc1C(=O)N[C@H]1CCCNC1 [AZD7762] (partner 0.2 µM)
Summed up: as §1

Compound in the assay “Olaparib + Pictilisib”: O=C(c1cc(Cc2n[nH]c(=O)c3ccccc23)ccc1F)N1CCN(C(=O)C2CC2)CC1 [Olaparib] + CS(=O)(=O)N1CCN(Cc2cc3nc(-c4cccc5[nH]ncc45)nc(N4CCOCC4)c3s2)CC1 [Pictilisib] (partner 1 µM)
Put shortly:
as §1

Compound in the assay “Crizotinib + Decitabine”: C[C@@H](Oc1cc(-c2cnn(C3CCNCC3)c2)cnc1N)c1c(Cl)ccc(F)c1Cl [Crizotinib] + Nc1ncn([C@H]2C[C@H](O)[C@@H](CO)O2)c(=O)n1 [Decitabine] (partner 2 µM)
Summed up:
as §1

Compound in the assay “Crizotinib + Olaparib”: C[C@@H](Oc1cc(-c2cnn(C3CCNCC3)c2)cnc1N)c1c(Cl)ccc(F)c1Cl [Crizotinib] + O=C(c1cc(Cc2n[nH]c(=O)c3ccccc23)ccc1F)N1CCN(C(=O)C2CC2)CC1 [Olaparib] (partner 8 µM)
Put shortly: as §1

Drawing on the supplement of paper PMC10307832, this text covers relative viability for 1 cell line.

For the cell line NCI-H1793, the relative viability with Crizotinib + Foretinib (first compound 0.03162 µM) was determined as 0.879; with Crizotinib + Foretinib (first compound 0.1 µM) it was 0.604; with Crizotinib + Foretinib (first compound 1 µM), 0.705; with Crizotinib + Phenformin (first compound 0.03162 µM), 0.408; in the assay with Crizotinib + Phenformin (first compound 0.1 µM) it was 0.343; with Crizotinib + Phenformin (first compound 1 µM), 0.388. Also, the relative viability with Carfilzomib + AZD7762 (first compound 0.001 µM) came to 0.481; in the assay with Carfilzomib + AZD7762 (first compound 0.003162 µM) it was 0.883; in the assay with Carfilzomib + AZD7762 (first compound 0.01 µM), 0.599; with Carfilzomib + AZD7762 (first compound 0.03162 µM), 0.757; in the assay with Carfilzomib + AZD7762 (first compound 0.1 µM) it was 0.506; with Olaparib + Pictilisib (first compound 0.08 µM), 0.515. Further, the relative viability with Olaparib + Pictilisib (first compound 0.253 µM) was 0.389; with Olaparib + Pictilisib (first compound 2.53 µM), 0.251; with Olaparib + Pictilisib (first compound 8 µM) it was 0.298; in the assay with Crizotinib + Decitabine (first compound 0.03162 µM), 0.522; with Crizotinib + Decitabine (first compound 0.1 µM) it was 0.53; with Crizotinib + Decitabine (first compound 1 µM), 0.555. For the same cell line, the relative viability in the assay with Crizotinib + Olaparib (first compound 0.1 µM) was found to be 0.835; with Crizotinib + Olaparib (first compound 1 µM), 0.903.
